Six compounds from US7910612B2, “4-oxy-N-[1,3,4]-thiadiazol-2-yl-benzene sulfonamides, pharmaceutical compositions and methods for their therapeutic use” (Sanofi-Aventis, priority 2005, dated 2011) can be followed below.

SMILES strings stand for the structures.

For the assay, the target named is T1, human PPARdelta (Homo sapiens, UniProt Q03181).
T1 construct: amino acids S139-Y441; expressed in transfected cells; host or cells: HEK (human embryo kidney) cells, stably transfected, pcDNA3 vector
T1 sequence (Q03181 139-441): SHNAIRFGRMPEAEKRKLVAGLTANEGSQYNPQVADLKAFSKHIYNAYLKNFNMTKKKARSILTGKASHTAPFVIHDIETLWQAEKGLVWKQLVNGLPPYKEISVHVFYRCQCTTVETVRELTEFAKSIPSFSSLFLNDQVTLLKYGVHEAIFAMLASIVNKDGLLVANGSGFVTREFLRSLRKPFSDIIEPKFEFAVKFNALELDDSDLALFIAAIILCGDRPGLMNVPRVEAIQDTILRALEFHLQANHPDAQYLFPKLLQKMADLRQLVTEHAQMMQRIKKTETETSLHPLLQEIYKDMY
As to the kind of experiment: cellular PPARdelta assay (stably transfected HEK luciferase reporter cell line). The assay is classed as cell-based. The procedure:
The potency of substances which bind to human PPARdelta and activate it in an agonistic manner is analyzed using a stably transfected HEK cell line (HEK=human embryo kidney) which is referred to here as PPARdelta reporter cell line. In analogy to the assay described for PPARalpha, the PPARdelta reporter cell line also contains two genetic elements, a luciferase reporter element (pdeltaM-GAL4-Luc-Zeo) and a PPARdelta fusion protein (GR-GAL4-humanPPARdelta-LBD) which mediates expression of the luciferase reporter element depending on a PPARdelta ligand. The stably and constitutively expressed fusion protein GR-GAL4-humanPPARdelta-LBD binds in the cell nucleus of the PPARdelta reporter cell line via the GAL4 protein portion to the GAL4 DNA binding motifs 5′-upstream of the luciferase reporter element which is stably integrated in the genome of the cell line. There is only little expression of the luciferase reporter gene in the absence of a PPARdelta ligand if fatty acid-depleted fetal calf serum (cs-FCS) is used in the assay. PPARdelta ligands bind and activate the PPARdelta fusion protein and thereby stimulate expression of the luciferase reporter gene. The luciferase which is formed can be detected by means of chemiluminescence via an appropriate substrate.
The production of the stable PPARdelta reporter cell line is based on a stable HEK-cell clone which was stably transfected with a luciferase reporter element. This step was already described above in the section “construction of the PPARalpha reporter cell line”. In a second step, the PPARdelta fusion protein (GR-GAL4-humanPPARdelta-LBD was stably introduced into this cell clone. For this purpose, the cDNA coding for the N-terminal 76 amino acids of the glucocorticoid receptor (Accession #P04150) was linked to the cDNA section coding for amino acids 1-147 of the yeast transcription factor GAL4 (Accession #P04386). The cDNA of the ligand-binding domain of the human PPARdelta receptor (amino acids S139-Y441; Accession #L07592) was cloned in at the 3′-end of this GR-GAL4 construct. The fusion construct prepared in this way (GR-GAL4-humanPPARdelta-LBD) was recloned into the plasmid pcDNA3 (Invitrogen) in order to enable constitutive expression by the cytomegalovirus promoter. This plasmid was linearized with a restriction endonuclease and stably transfected into the previously described cell clone containing the luciferase reporter element. The resulting PPARdelta reporter cell line which contains a luciferase reporter element and constitutively expresses the PPARdelta fusion protein (GR-GAL4-human PPARdelta-LBD) was isolated by selection with zeocin (0.5 mg/ml) and G418 (0.5 mg/ml).
The activity of PPARdelta agonists is determined in a 3-day assay in exact analogy to the procedure already described for the PPARalpha reporter cell line except that the PPARdelta reporter cell line and a specific PPARdelta agonist was used as a standard to control test efficacy. […] Compounds of the invention of the formula I activate the PPARdelta receptor.
The compound `COc1ccc2c(COc3ccc(S(=O)(=O)Nc4nnc(C(C)C)s4)cc3)coc2c1` [Example 3, N-(5-Isopropyl-[1,3,4]thiadiazol-2-yl)-4-(6-methoxy-benzofuran-3-ylmethoxy)-benzenesulfonamide] had an EC50 of 480 nM. The value for `CC(C)c1nnc(NS(=O)(=O)c2ccc(OCc3ccc(Oc4ccc(C(F)(F)F)cc4)cc3)cc2)s1` [Example 4, N-(5-Isopropyl-[1,3,4]thiadiazol-2-yl)-4-[4-(4-trifluoromethyl-phenoxy)-benzyloxy]-benzenesulfonamide] was 1130 nM. `CCc1oc(-c2cccc(C(F)(F)F)c2)nc1COc1ccc(S(=O)(=O)Nc2nnc(C(C)C)s2)cc1` [Example 14, 4-[5-Ethyl-2-(3-trifluoromethyl-phenyl)-oxazol-4-ylmethoxy]-N-(5-isopropyl-[1,3,4]thiadiazol-2-yl)-benzenesulfonamide] yielded an EC50 of 670 nM. `COc1ccc(-c2nc(COc3ccc(S(=O)(=O)Nc4nnc(C(C)C)s4)cc3)no2)cc1` [Example 9, N-(5-Isopropyl-[1,3,4]thiadiazol-2-yl)-4-[5-(4-methoxy-phenyl)-[1,2,4]oxadiazol-3-ylmethoxy]-benzenesulfonamide] displayed a half-maximal effective concentration (EC50) of 260 nM.

`COc1ccc(-c2nc(COc3ccc(S(=O)(=O)Nc4nnc(C(C)C)s4)cc3)co2)cc1` [Example 13, N-(5-Isopropyl-[1,3,4]thiadiazol-2-yl)-4-[2-(4-methoxy-phenyl)-oxazol-4-ylmethoxy]-benzenesulfonamide] had an EC50 of 650 nM. Under `Cc1nc(-c2ccc(C(F)(F)F)cc2)sc1COc1ccc(S(=O)(=O)Nc2nnc(C(C)C)s2)cc1` [Example 1, N-(5-Isopropyl-[1,3,4]thiadiazol-2-yl)-4-[4-methyl-2-(4-trifluoromethyl-phenyl)-thiazol-5-ylmethoxy]-benzenesulfonamide] stands 370 nM.
